According to US20240082433A1, “TUMOR RESECTION PROCESS AND COMPOSITION CONTAINING IRIDIUM-CONTAINING NUCLEOSIDE” (Cleveland State University, priority 2022, published 2024):

Assays:
[1] = system: human brain cancer cell line, U87, that expresses red fluorescent protein (RFP); assay: Selective uptake in co-culture, RFP-U87 cells, fluorescent microscopy; type: cell-based; conditions: RFP-U87 co-cultured with normal fibroblasts, 10 μM, 4 hours
Source text: FIG. 4 includes microscopy images showing co-localization of Ir(III)-PPY nucleoside in glioblastoma cells expressing red-fluorescent protein (RFP-U87).
(§1) Fluorescent microscopy was then used to validate that the uptake of Ir(III)-PPY nucleoside is selective for cancer cells. FIG. 4 compares the uptake of Ir(III)-PPY nucleoside using a human brain cancer cell line, U87, that expresses red fluorescent protein (RFP) versus normal fibroblasts. In these experiments, RFP-U87 cells were co-cultured with normal fibroblasts overnight and then treated with 10 μM Ir(III)-PPY nucleoside for 4 hours. […] Similar results were obtained at longer time intervals encompassing 24 hours incubation with Ir(III)-PPY nucleoside (data not shown).

[2] = system: cervical cancer cells (KB3-1 cell line); assay: Cellular uptake into KB3-1 cells by fluorescence microscopy; type: cell-based, human
Description: FIG. 3 includes fluorescence microscopy images of the dose-dependent uptake of Ir(III)-PPY nucleoside in the human cancer cell line, KB3-1, particularly showing increased Ir(III)-PPY nucleoside (green) as a function of increasing concentration (Δt=4 hours).
Several Iridium-containing nucleosides were synthesized and their imaging and anti-cancer activities were characterized. One non-limiting example of a compound is designated as Ir(III)-PPY nucleoside and shown in FIG. 2 next to deoxyadenosine. The synthetic design relies on the catalyzed [3+2] cycloaddition of azides to terminal alkynes. In this design, pyridyl triazoles covalently link the metal atom to the deoxyribose and this prevents metal dissociation from the complex. The cellular uptake of Ir(III)-PPY nucleoside into cervical cancer cells (KB3-1 cell line) was evaluated by treating cells with variable concentrations of Ir(III)-PPY nucleoside (0-50 μM). At times ranging from 4 to 24 hours, fluorescence microscopy images were taken using an excitation wavelength (λex) of 340 nm and an emission wavelength (λem) of 480 nm. […] The uptake of low concentrations (10 μM) of Ir(III)-PPY nucleoside can be visualized as early as 4 hours post treatment. […] Thus, the cellular uptake can be measured on short time scales (Δt<12 hours) without complications arising from effects on cell viability.

normal fibroblasts [3] = assay: Selective uptake in co-culture, normal fibroblasts, fluorescent microscopy; type: cell-based; conditions: co-cultured with RFP-U87, 10 μM, 4 hours
Description: as §1

[4] = system: cervical cancer cells (KB3-1 cell line); assay: Cytotoxic effects in KB3-1 cells; type: cell-based, human; conditions: KB3-1, after 24 hours
Source text: Several Iridium-containing nucleosides were synthesized and their imaging and anti-cancer activities were characterized. One non-limiting example of a compound is designated as Ir(III)-PPY nucleoside and shown in FIG. 2 next to deoxyadenosine. The synthetic design relies on the catalyzed [3+2] cycloaddition of azides to terminal alkynes. In this design, pyridyl triazoles covalently link the metal atom to the deoxyribose and this prevents metal dissociation from the complex. The cellular uptake of Ir(III)-PPY nucleoside into cervical cancer cells (KB3-1 cell line) was evaluated by treating cells with variable concentrations of Ir(III)-PPY nucleoside (0-50 μM). At times ranging from 4 to 24 hours, fluorescence microscopy images were taken using an excitation wavelength (λex) of 340 nm and an emission wavelength (λem) of 480 nm. […] The uptake of low concentrations (10 μM) of Ir(III)-PPY nucleoside can be visualized as early as 4 hours post treatment. Ir(III)-PPY nucleoside produces weak cytotoxic effects (IC50˜50 μM) after 24 hours. Thus, the cellular uptake can be measured on short time scales (Δt<12 hours) without complications arising from effects on cell viability.

brain cancer cells (U87) [5] = assay: Uptake/fluorescence imaging in 3D and 2D U87 brain cancer cell culture; type: cell-based, human
Description: To improve the imaging capabilities of this class of compound, additional analogs corresponding to Ir(III)-BZQ nucleoside and Ir(III)-PBO nucleoside (FIG. 5) were synthesized and tested for uptake using 3-dimensional cell culture techniques. […] Fluorescent microscopy was used to investigate the uptake of each nucleoside in which cells were treated with 1 μM of each compound for 24 hours. […] This conclusion is based on the more intense fluorescent signal observed in cells treated with Ir(III)-BZQ nucleoside that accurately defines the overall 3-dimensional shape of the cancerous mass. In particular, the overall intensity in green fluorescence caused by the uptake of Ir(III)-BZQ nucleoside is about 5 times greater than observed in cells treated with equivalent concentrations of Ir(III)-PPY nucleoside. […] While this represents an interesting phenomenon, this behavior precludes the ability of Ir(III)-PBO nucleoside to function as a “tumor margin” imaging agents since there is no defined outline of the cancerous mass.
(§2) Fluorescent microscopy techniques were used to measure both red and green fluorescence associated with the cellular uptake of the analog over a three (3) day treatment period. […] The fluorescent signals are only observed in the 3D cancerous masses, thus making them easily identifiable at low magnification (10×).
FIG. 10 compares fluorescence activity of Ir(III)-BZQ nucleoside with Indocyanine green at a fixed concentration of 10 μM. Images were taken comparing fluorescence emission in the red (600-700 nm) and green spectral range (500-600 nm) after 24 hours post-treatment.

BT-549 = assay: Uptake/fluorescence in 3D TNBC model BT-549; type: cell-based; conditions: 3D BT-549, 10 μM, 24 hours
Description: (§3) The theranostic activity of […] was also confirmed using 3D models of triple negative breast cancer (TNBC) (MDA-MB-453, MDA-MB-468, BT-549, MDA-MB-231). TNBC cells were chosen due to the poor prognosis caused by their aggressive nature and limited treatment options. 3D cancer cells were treated with 10 μM Ir(III)-BZQ nucleoside for 24 hours prior to microscopy analyses.

MDA-MB-231 = assay: Uptake/fluorescence in 3D TNBC model MDA-MB-231; type: cell-based; conditions: 3D MB-231, 10 μM, 24 hours
Description: as §3

[6] = system: MT1A2 cells (derived from PyMT); assay: Uptake/fluorescence in MT1A2 cells; type: cell-based; conditions: MT1A2, 10 μM, 24 hours
MDA-MB-468 cells = assay: Dual parameter flow cytometry (Annexin V / propidium iodide) apoptosis; type: cell-based; conditions: MDA-MB-468, variable concentrations
Source text: Dual parameter flow cytometry employing Annexin V and propidium iodide staining was used to measure apoptosis in MDA-MB-468 cells treated with variable concentrations of Ir(III)-BZQ nucleoside. […] Microscopy imaging verifies an increase in green fluorescence caused by the accumulation of Ir(III)-BZQ nucleoside and correlates with the dose-dependent increase in apoptosis caused by the agent.

brain cancer cells (U87) [7] = assay: Cell-killing effects against 2D and 3D U87 brain cancer cells by microscopy; type: cell-based, human; conditions: for cell-killing / therapeutic activity: U87 3D masses and 2D cells, 10 μM
Description: FIG. 7 illustrates the time-dependent uptake and cell-killing effects of Ir(III)-BZQ nucleoside (10 μM) against 2D and 3D brain cancer cells.
as §2

MDA-MB-453 = assay: Uptake/fluorescence in 3D TNBC model MDA-MB-453; type: cell-based
Description: as §3
Two (2) new Iridium-nucleosides designated Ir(III)-PPY-nucleoside (small, hydrophobic) and Ir(III)-PBO nucleoside (small, hydrophilic) were synthesized and tested as cancer imaging agents. FIG. 14 compares the imaging properties of these two analogs versus our lead agent, Ir(III)-BZQ nucleoside (small, hydrophobic). Experiments were performed treating MDA-MB-453 cells with 1 μM of each compound for 3 days. […] This phenomenon precludes its further development as a tumor margin imaging agent as it poorly defines the entire 3D mass as compared to Ir(III)-BZQ nucleoside and Ir(III)-PPY nucleoside.

MDA-MB-468 = assay: Uptake/fluorescence in 3D TNBC model MDA-MB-468; type: cell-based; conditions: 3D MB-468, 10 μM, 24 hours
Description: as §3

normal fibroblasts [8] = assay: LD50 in 2D cell culture, normal fibroblasts; type: cell-based; conditions: 2D cell cultures
Source text: The therapeutic activity and selectivity of Ir(III)-BZQ nucleoside was confirmed by measuring LD50 values against MB-468 cells (high accumulation), MDA-MB-231 (low accumulation), and normal fibroblasts using 2D cell cultures (Table 1, below).

[9] = U87, 10 μM, three days vs 1 day

In the case of `F[P-](F)(F)(F)(F)F.OCC1OC(n2cc(-c3ccccn3)nn2)CC1O.c1ccc(-c2cccc[c]2[Ir][c]2ccccc2-c2ccccn2)nc1` [Ir(III)-PPY nucleoside], the “uptake in U87 cancer cells” value [1] is reported as “rapidly accumulates”, the “intracellular accumulation (green fluorescence)” value ([2]; KB3-1, 0-50 μM, 4 to 24 hours, λex 340 nm, λem 480 nm) is reported as “dose-dependent” and the “time post treatment at which uptake can be visualized” value ([2]; KB3-1, 10 μM) is reported as no more than 4 h. For the same molecule, the “uptake in normal fibroblasts” value (normal fibroblasts [3]) was “no uptake”, the IC50 [4] was roughly 50 µM and the red fluorescence (brain cancer cells (U87) [5]; U87 3D masses, 1 μM, 24 hours) was “not observed”.
With `F[P-](F)(F)(F)(F)F.OCC1OC(n2cc(-c3ccccn3)nn2)CC1O.c1cnc2c(c1)ccc1ccc[c]([Ir][c]3cccc4ccc5cccnc5c34)c12` [Ir(III)-BZQ nucleoside] the “fluorescence signals (uptake and accumulation)” value (BT-549) was “weak fluorescence”, the “fluorescence signals (uptake and accumulation)” value (MDA-MB-231) was “weak fluorescence” and the “fluorescence signals (uptake and accumulation)” value [6] was “no fluorescence signals”. The apoptosis (MDA-MB-468 cells) was “increase in both early- and late-stage apoptosis”, the necrotic cell death (MDA-MB-468 cells) was “without causing necrotic cell death” and the “cell-killing / therapeutic activity” value (brain cancer cells (U87) [7]; 1 to 3 days treatment) was “possesses cell-killing activity”. For the same molecule, the “cell-killing effect on 2D cells” value (brain cancer cells (U87) [7]; [9]) was “reduction in the number of 2D cells”, the “cell-killing effect on 3D masses” value (brain cancer cells (U87) [7]; [9]) was “death of cells that reside at the outer fringe of the cancerous mass” and the “fluorescence signals (uptake and accumulation)” value (MDA-MB-453; 3D MB-453, 10 μM, 24 hours) was “high fluorescence signals”. For the same molecule, the “fluorescence intensity compared to Ir(III)-PPY nucleoside and Ir(III)-PBO nucleoside” value (MDA-MB-453; MDA-MB-453, 1 μM, 3 days) was roughly 5 fold, the “imaging activity among the three compounds” value (MDA-MB-453; MDA-MB-453, 1 μM, 3 days) was “superior activity” and the “fluorescence signals (uptake and accumulation)” value (MDA-MB-468) was “high fluorescence signals”. For the same molecule, the “cytotoxic effects (LD50)” value (normal fibroblasts [8]) was “minimal cytotoxic effects”, the “fluorescence emission in the green spectral range (500-600 nm), direct comparison” value (brain cancer cells (U87) [5]; 10 μM, 24 hours post-treatment) was “superior fluorescence emission” and the “imaging activity amongst the three compounds tested” value (brain cancer cells (U87) [5]; U87 3D masses, 1 μM, 24 hours) was “superior activity”. For the same molecule, the red fluorescence (brain cancer cells (U87) [5]; U87 3D masses, 1 μM, 24 hours) was “display red fluorescence”, the “overall intensity in green fluorescence relative to Ir(III)-PPY nucleoside” value (brain cancer cells (U87) [5]; U87 3D masses, 1 μM, 24 hours, equivalent concentrations) was “about 5 times” and the “fluorescence signal in 2D cells” value (brain cancer cells (U87) [5]; U87, 10 μM, 10× magnification) was “Little to no fluorescence signal”. For the same molecule, the “fluorescence signals in 3D cancerous masses” value (brain cancer cells (U87) [5]; U87, 10 μM, after 1 day, 10× magnification) was “intense red and green fluorescence signals” and the “fluorescence signals in 3D masses” value (brain cancer cells (U87) [5]; U87, 10 μM, after three days) was “still show intense fluorescence signals”.
In the case of `F[P-](F)(F)(F)(F)F.OCC1OC(n2cc(-c3ccccn3)nn2)CC1O.c1ccc(-c2ncco2)[c]([Ir][c]2ccccc2-c2ncco2)c1` [Ir(III)-PBO nucleoside], the “fluorescence pattern in cells” value (MDA-MB-453; MDA-MB-453, 1 μM, 3 days) is reported as “unique punctates”, the “fluorescence pattern in cells” value (brain cancer cells (U87) [5]; U87 3D masses, 1 μM, 24 hours) is reported as “unique punctates” and the red fluorescence (brain cancer cells (U87) [5]; U87 3D masses, 1 μM, 24 hours) is reported as “not observed”.
For `CC1(C)C(/C=C/C=C/C=C/C=C2\N(CCCCS(=O)(=O)O)c3ccc4ccccc4c3C2(C)C)=[N+](CCCCS(=O)(=O)[O-])c2ccc3ccccc3c21` [Indocyanine green, reference compound], the “cell-killing / therapeutic activity” value (brain cancer cells (U87) [7]; 1 to 3 days treatment) was “no detectable therapeutic activity”, the “overall size of the 3D masses” value (brain cancer cells (U87) [7]; U87, 10 μM, 1 to 3 days treatment) was “increases as a function of time” and the “fluorescence emission in the red spectral range (600-700 nm), direct comparison” value (brain cancer cells (U87) [5]; 10 μM, 24 hours post-treatment) was “superior fluorescence emission activity”. For the same molecule, the “red fluorescence in U87 cells” value (brain cancer cells (U87) [5]; 1 and 10 μM, after 24 hours, 10× magnification) was “dose-and time dependent increase in red fluorescence” and the “fluorescence emission activity in the red spectral range (600-700 nm) relative to Ir(III) BZQ nucleoside” value (brain cancer cells (U87) [5]; U87, identical concentrations (1 and 10 μM), 24 hours) was roughly 5 times.
